This note sets out measurements from patent US20130085133A1, “ANTI-VIRAL TREATMENT AND ASSAY TO SCREENFOR ANTI-VIRAL AGENT” (Sourthern Research Institute Office of Commercialization …, priority 2010, published 2013).

Where only a bound is given, the exact number is not on record here.

One may read the EC50 as the concentration that produces a half-maximal response. Read a high EC50 as lower potency in that assay. As usually defined, the CC50 is the concentration giving 50% cytotoxicity.

The test system of series [1] is respiratory syncytial virus (RSV) strain Long. Description: microbe, parasite or virus in culture. The note with it: human respiratory syncytial virus, HEp-2, 144 h.
Series [2] in a line: cytotoxicity assay (percent viability of HEp-2 cells, Cell Titer-Glo). The note with it: human, HEp-2 cells.
The test system of a further series is RSV, Long strain. Description: virus titer Reduction (VTR) assay, progeny virus TCID50 in HEp-2 cells. It counts as cell-based, respiratory syncytial virus (RSV). The settings on record: human respiratory syncytial virus, 48 h; for log reduction at 3 µg/mL: 3 ug/ml compound, read-out: TCID-50 Reduction @ 3 ug/ml; for log reduction at 5 µg/mL: 5 ug/ml compound, read-out: TCID-50 Reduction @ 5 ug/ml; for log reduction at 12 µg/mL: 12 ug/ml compound, read-out: TCID-50 Reduction 12 @ ug/ml; for log reduction at 25 µg/mL: 25 ug/ml compound, read-out: TCID-50 Reduction 25 @ ug/ml; for log reduction at 6 µg/mL: 6 ug/ml compound, read-out: TCID-50 Reduction 6 @ ug/ml. The procedure: Four concentrations of each compound were evaluated (Table 3). Briefly, the four concentrations of test compounds, HEp-2 cells (8×10^3 per well) and RSV, Long strain (MOI=0.9) were plated in 96 well microtiter plates. The plates were incubated for 48 hours. Fifteen (15) μl of 10-fold serial dilution of progeny virus containing medium from respective samples (test compound treated or untreated) was transferred to infect fresh HEp-2 cells (2×10^3 cells per well) in a 384 well format. Plates were incubated for an additional 6 days and luminescence was measured using Cell Titer-Glo reagent (Promega Inc.) to determine cell viability. […] A well showing lesser than 50% cell viability was regarded as positive for virus infection. Four replicates for each virus dilution were analyzed and the number of virus positive wells (out of 4) was plotted versus the dilution. TCID50 was calculated to be the dilution that produced two positive wells out of four using ActivityBase software (IDBS, Inc, Guilford, UK).

Consider `Cc1cccc(N2C(=O)CC(Cc3ccc(Cl)cc3)C2=O)c1Cl` (stereo not drawn) [AB00292352], for which, in series [1], the response was half-maximal at 8.56 µg/mL (EC50). For the same compound, the CC50 at 6 days in series [2] is more than 25 µg/mL. Also, in the series on RSV, Long strain, the log reduction at 3 µg/mL amounted to 1.22, the log reduction at 5 µg/mL came out at 2.31, the log reduction at 12 µg/mL turned out to be 3.82 and the log reduction at 25 µg/mL came to 5.9.
In series [1], `CSc1ccccc1C(=O)Nc1ccc(S(=O)(=O)Nc2cccc(Cl)c2Cl)cc1` [AB00370446] had an EC50 of 4.37 µg/mL. In series [2], this compound had a CC50 at 6 days of more than 25 µg/mL. In the series on RSV, Long strain, the log reduction at 3 µg/mL turned out to be 1, the log reduction at 6 µg/mL is 1.32, the log reduction at 12 µg/mL was 3.21 and the log reduction at 25 µg/mL turned out to be 6.57.
As to `CCOC(=O)Cc1nnc(Nc2ccc(C)cc2)c2ccccc12` [AB00285095], the EC50 in series [1] was 9.72 µg/mL. Besides, the CC50 at 6 days in series [2] was more than 25 µg/mL. Besides, in the series with RSV, Long strain, the log reduction at 3 µg/mL came to 1, the log reduction at 6 µg/mL came out at 1.32, the log reduction at 12 µg/mL was determined as 1.99 and the log reduction at 25 µg/mL amounted to 2.56.
For the compound `O=C(Cc1ccc(Br)cc1)Nc1ccccc1C(=O)O` [AB00369287], the concentration giving a half-maximal response (EC50) in series [1] was 9.56 µg/mL. The same compound displayed a CC50 at 6 days in series [2] of more than 25 µg/mL. In the series on RSV, Long strain, the log reduction at 3 µg/mL turned out to be 1, the log reduction at 6 µg/mL came to 3.31, the log reduction at 12 µg/mL was 4.73 and the log reduction at 25 µg/mL is 6.57.
Take `O=c1cnn([C@@H]2O[C@H](CO)[C@@H](O)[C@H]2O)c(=O)[nH]1` [SRI-7958]: the EC50 in series [1] came out at 2400 nM. Also, the CC50 at 6 days in series [2] is more than 50000 nM. Further, in the series on RSV, Long strain, the log reduction at 5 µg/mL amounted to 3.58, the log reduction at 12 µg/mL turned out to be 5.98 and the log reduction at 25 µg/mL amounted to 5.56. Also, the log reduction at 50 µg/mL in the series on RSV, Long strain (50 ug/ml compound, read-out: TCID-50 Reduction @ 50 ug/ml) was determined as 5.87.
As to `COc1c(C)cccc1C(=O)NCCOc1ccc(Cl)cc1` [AB00368252], a half-maximal response in series [1] (EC50) required 9.43 µg/mL. Further, the CC50 at 6 days in series [2] is more than 25 µg/mL. Moreover, in the series with RSV, Long strain, the log reduction at 3 µg/mL was found to be 1, the log reduction at 6 µg/mL is 1.3, the log reduction at 12 µg/mL is 1.72 and the log reduction at 25 µg/mL came out at 4.94.
With `CCCSC1=C(C#N)C(c2ccco2)C(C(=O)Nc2ccccc2)=C(C)N1` (stereo not drawn) [AB00276073], the EC50 in series [1] came to 5.12 µg/mL. Further, the CC50 at 6 days in series [2] was more than 25 µg/mL. In the series with RSV, Long strain, the log reduction at 3 µg/mL worked out at 1, the log reduction at 6 µg/mL is 0.63, the log reduction at 12 µg/mL is 1.39 and the log reduction at 25 µg/mL worked out at 3.57.
`COc1ccc(C(=O)Nc2ccc3c(c2)OCCO3)c(OC)c1` [AB00296320]: the EC50 in series [1] worked out at 8.34 µg/mL. This compound also displayed a 50% cytotoxic concentration (CC50) at 6 days in series [2] of more than 25 µg/mL. Moreover, in the series on RSV, Long strain, the log reduction at 3 µg/mL amounted to 1.55, the log reduction at 6 µg/mL is 1.38, the log reduction at 12 µg/mL came to 2.9 and the log reduction at 25 µg/mL was found to be 4.66.
In series [1], `Cc1ccn2cc(-c3cccc(NS(=O)(=O)c4ccccc4)c3)nc2c1` [AB00356285] showed a concentration giving a half-maximal response (EC50) of 4.04 µg/mL. Besides, in series [2], the CC50 at 6 days is more than 25 µg/mL. For the same compound, in the series on RSV, Long strain, the log reduction at 3 µg/mL was 1.14, the log reduction at 6 µg/mL was 1.38, the log reduction at 12 µg/mL was 2.42 and the log reduction at 25 µg/mL was found to be 3.78.
For `COc1ccc(CNCCC(c2ccc(F)cc2)c2ccco2)cc1OC` (stereo not drawn) [AB00362846], a half-maximal response in series [1] (EC50) required 4.47 µg/mL. Also, the CC50 at 6 days in series [2] was more than 25 µg/mL. In addition, in the series with RSV, Long strain, the log reduction at 3 µg/mL worked out at 1, the log reduction at 6 µg/mL stood at 1.92, the log reduction at 12 µg/mL was determined as 2.82 and the log reduction at 25 µg/mL came to 5.48.
Consider `COC(=O)C1=C(C)N(Cc2ccccc2)C(=O)NC1c1ccc(OC)c(OC)c1` (stereo not drawn) [AB00318114], for which the EC50 in series [1] came out at 3.37 µg/mL. For the same compound, the CC50 at 6 days in series [2] was more than 25 µg/mL. In addition, in the series on RSV, Long strain, the log reduction at 3 µg/mL is 2.42, the log reduction at 5 µg/mL came to 4.69, the log reduction at 12 µg/mL was 5.56 and the log reduction at 25 µg/mL stood at 5.9.
